In PMC12507958, “Modification of human metallothioneins by garlic organosulfur compounds, allicin and ajoene: direct effect on zinc homeostasis with relevance to immune regulation” (Biometals, 2025):

Experiments:
Assay type in all cases: binding
[1] = target: T1, MT2 (Homo sapiens, UniProt P02795); assay: Zn(II) release followed with PAR; adducts by ESI-MS and top-down MS; details: 1 uM Zn(II)-loaded MT2, 80 uM ajoene, 100 uM PAR, 50 mM HEPES, 100 mM NaCl, pH 7.4, 25 °C; covalent (Cys within residues 29-53)
T1 construct: gene MT2A; full-length recombinant, intein/chitin tag (pTYB21) cleaved by DTT, from E. coli BL21(DE3)pLysS; Zn7-loaded (Zn7MT2)
T1 sequence (P02795 whole entry, the tested form may be a part): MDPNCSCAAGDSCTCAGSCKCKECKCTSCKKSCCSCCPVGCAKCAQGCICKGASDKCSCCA

[2] = target: T2, MT4 (Homo sapiens, UniProt P47944); assay: Zn(II) release followed with PAR at […] nm; details: 1 uM Zn(II)-loaded MT, 80 uM allicin, 200 uM PAR, 50 mM HEPES, 100 mM NaCl, pH 7.4, 25 °C; covalent (Cys S-thioallylation)
T2 construct: full-length recombinant, intein/chitin tag (pTYB21) cleaved by DTT, from E. coli BL21(DE3)pLysS; Zn7-loaded
T2 sequence (P47944 whole entry): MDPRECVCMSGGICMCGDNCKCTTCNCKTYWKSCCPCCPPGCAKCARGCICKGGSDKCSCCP

[3] = target: T3, MT3 (Homo sapiens, UniProt P25713); assay: Zn(II) release followed with PAR at […] nm; details: 1 uM Zn(II)-loaded MT, 80 uM allicin, 200 uM PAR, 50 mM HEPES, 100 mM NaCl, pH 7.4, 25 °C; covalent (Cys S-thioallylation)
T3 construct: full-length recombinant, intein/chitin tag (pTYB21) cleaved by DTT, from E. coli BL21(DE3)pLysS; Zn7-loaded
T3 sequence (P25713 whole entry): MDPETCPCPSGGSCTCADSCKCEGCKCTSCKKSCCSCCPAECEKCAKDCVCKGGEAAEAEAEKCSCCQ

[4] = target: T1, MT2; assay: Zn(II) release followed with PAR; adducts by ESI-MS and top-down MS; details: 1 uM Zn(II)-loaded MT2, 80 uM allicin, 100 uM PAR, 50 mM HEPES, 100 mM NaCl, pH 7.4; covalent (S-thioallylation, Cys within residues 19-30)
[5] = target: T4, MT1a (Homo sapiens, UniProt P04731); assay: Zn(II) release followed with PAR at […] nm; details: 1 uM Zn(II)-loaded MT, 80 uM allicin, 200 uM PAR, 50 mM HEPES, 100 mM NaCl, pH 7.4, 25 °C; covalent (Cys S-thioallylation)
T4 construct: full-length recombinant, intein/chitin tag (pTYB21) cleaved by DTT, from E. coli BL21(DE3)pLysS; Zn7-loaded
T4 sequence (P04731 whole entry): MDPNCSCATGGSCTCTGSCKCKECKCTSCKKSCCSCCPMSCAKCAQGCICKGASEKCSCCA

Compound | Zn(II) mol. eq. dissociated after 60 min [1] | Zn(II) mol. eq. dissociated after 60 min [2] | Zn(II) mol. eq. dissociated after 60 min [3] | Zn(II) mol. eq. dissociated after 1 h [4] | Zn(II) mol. eq. dissociated after 60 min [5]
C=CCSSC=CC[S+]([O-])CC=C (centres unmarked) [ajoene] | almost 6 | – | – | – | –
C=CCS[S+]([O-])CC=C (centres unmarked) [allicin] | – | 2.8 mol. eq. | 5.2 mol. eq. | 5.3 mol. eq. | 5 mol. eq.
